Type in all cases: biochemical
Common to all, as to conditions: ATP 100 μM; Table^a 154

One experiment addresses JAK1 (Homo sapiens (Human), UniProt P23458). Nature of the experiment: Enzyme assay (Assay Example^a 1), JAK1.
The next experiment has as its target JAK2 (Homo sapiens (Human), UniProt O60674). Nature of the experiment: Enzyme assay (Assay Example^a 1), JAK2.
A further experiment has as its target JAK3 (Homo sapiens (Human), UniProt P52333). Briefly: Enzyme assay (Assay Example^a 1), JAK3.
For a further experiment, the target named is Tyk2 (Homo sapiens (Human), UniProt P29597). Briefly: Enzyme assay (Assay Example^a 1), Tyk2.
Sequence of Tyk2 (P29597 whole entry): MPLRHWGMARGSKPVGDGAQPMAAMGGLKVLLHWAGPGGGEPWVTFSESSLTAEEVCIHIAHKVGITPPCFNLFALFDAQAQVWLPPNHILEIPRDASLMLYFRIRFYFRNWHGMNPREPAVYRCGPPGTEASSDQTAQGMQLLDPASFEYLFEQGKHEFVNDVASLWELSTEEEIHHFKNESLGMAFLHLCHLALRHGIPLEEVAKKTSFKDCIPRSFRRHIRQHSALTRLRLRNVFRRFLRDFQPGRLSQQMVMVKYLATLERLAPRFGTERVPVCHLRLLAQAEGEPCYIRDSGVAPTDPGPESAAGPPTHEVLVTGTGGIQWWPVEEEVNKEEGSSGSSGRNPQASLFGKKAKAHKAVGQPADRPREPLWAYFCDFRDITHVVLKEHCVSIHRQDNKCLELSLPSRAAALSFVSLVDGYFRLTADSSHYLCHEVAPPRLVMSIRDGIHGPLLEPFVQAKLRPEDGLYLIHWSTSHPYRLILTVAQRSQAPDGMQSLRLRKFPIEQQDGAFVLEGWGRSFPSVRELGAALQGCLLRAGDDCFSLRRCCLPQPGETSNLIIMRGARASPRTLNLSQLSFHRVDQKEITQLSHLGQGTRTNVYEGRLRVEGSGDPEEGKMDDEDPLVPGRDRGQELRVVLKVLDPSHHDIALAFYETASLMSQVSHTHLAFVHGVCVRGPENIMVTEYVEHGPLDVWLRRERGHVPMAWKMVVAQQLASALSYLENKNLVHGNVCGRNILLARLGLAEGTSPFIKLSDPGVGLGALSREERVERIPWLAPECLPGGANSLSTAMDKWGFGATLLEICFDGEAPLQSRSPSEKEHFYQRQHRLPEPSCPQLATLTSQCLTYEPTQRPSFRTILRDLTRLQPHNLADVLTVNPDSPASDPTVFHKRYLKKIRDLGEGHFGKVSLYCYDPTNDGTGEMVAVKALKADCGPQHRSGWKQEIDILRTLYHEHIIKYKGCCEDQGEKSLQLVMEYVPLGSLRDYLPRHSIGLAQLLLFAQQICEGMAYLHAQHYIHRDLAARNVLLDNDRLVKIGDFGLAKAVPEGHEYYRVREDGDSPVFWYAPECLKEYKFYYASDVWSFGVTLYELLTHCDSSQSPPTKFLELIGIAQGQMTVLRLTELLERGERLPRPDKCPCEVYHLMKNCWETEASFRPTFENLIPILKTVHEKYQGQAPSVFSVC

Sequence of JAK3 (P52333 whole entry): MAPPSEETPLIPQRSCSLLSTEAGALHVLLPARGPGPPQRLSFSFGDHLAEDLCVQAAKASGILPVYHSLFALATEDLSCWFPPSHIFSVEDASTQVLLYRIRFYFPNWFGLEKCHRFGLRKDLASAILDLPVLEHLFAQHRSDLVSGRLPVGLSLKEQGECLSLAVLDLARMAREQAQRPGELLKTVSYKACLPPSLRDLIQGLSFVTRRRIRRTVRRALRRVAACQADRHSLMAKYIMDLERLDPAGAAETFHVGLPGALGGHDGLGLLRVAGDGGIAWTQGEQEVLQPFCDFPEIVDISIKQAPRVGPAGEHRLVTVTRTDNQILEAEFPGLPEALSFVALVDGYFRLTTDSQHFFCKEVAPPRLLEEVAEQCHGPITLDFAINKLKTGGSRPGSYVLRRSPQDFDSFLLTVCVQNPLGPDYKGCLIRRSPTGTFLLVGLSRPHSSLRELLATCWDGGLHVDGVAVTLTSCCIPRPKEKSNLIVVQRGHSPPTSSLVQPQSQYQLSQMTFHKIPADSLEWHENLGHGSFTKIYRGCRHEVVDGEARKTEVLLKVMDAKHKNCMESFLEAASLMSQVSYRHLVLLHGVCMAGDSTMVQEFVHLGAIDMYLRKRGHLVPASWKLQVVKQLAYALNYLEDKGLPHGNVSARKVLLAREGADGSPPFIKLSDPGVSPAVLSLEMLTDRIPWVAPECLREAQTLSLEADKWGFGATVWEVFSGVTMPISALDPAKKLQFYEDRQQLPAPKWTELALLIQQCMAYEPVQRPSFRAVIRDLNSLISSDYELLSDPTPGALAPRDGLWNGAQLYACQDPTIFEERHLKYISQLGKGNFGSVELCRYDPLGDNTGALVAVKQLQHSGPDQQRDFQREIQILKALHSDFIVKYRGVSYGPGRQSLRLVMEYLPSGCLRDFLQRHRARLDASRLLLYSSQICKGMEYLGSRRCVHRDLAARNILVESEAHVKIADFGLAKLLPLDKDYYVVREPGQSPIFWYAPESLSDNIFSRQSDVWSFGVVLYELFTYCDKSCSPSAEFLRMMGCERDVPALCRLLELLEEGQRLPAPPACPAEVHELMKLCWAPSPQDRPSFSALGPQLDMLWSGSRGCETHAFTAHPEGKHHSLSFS

For the compound `Fc1cnccc1CN1CCC(c2nnn3cnc4[nH]ccc4c23)CC1` [compound 161, 1-{1-[(3-fluoropyridin-4-yl)methyl]piperidin-4-yl}-7H-pyrrolo[3,2-e][1,2,3]triazolo[1,5-c]pyrimidine], the IC50 was determined as 0.0034 µM at JAK1, 0.011 µM against JAK2, 0.31 µM on JAK3 and 0.14 µM against Tyk2.

Regarding `Fc1ccc(CN2CCC(c3nnn4cnc5[nH]ccc5c34)CC2)nc1` [compound 162, 1-{1-[(5-fluoropyridin-2-yl)methyl]piperidin-4-yl}-7H-pyrrolo[3,2-e][1,2,3]triazolo[1,5-c]pyrimidine], the half-maximal inhibitory concentration (IC50) on JAK1 is 0.032 µM; against JAK2, 0.2 µM; at JAK3, 0.68 µM; against Tyk2 it was over 1 µM.

As to `Clc1cnccc1CN1CCC(c2nnn3cnc4[nH]ccc4c23)CC1` [compound 163, 1-{1-[(3-chloropyridin-4-yl)methyl]piperidin-4-yl}-7H-pyrrolo[3,2-e][1,2,3]triazolo[1,5-c]pyrimidine], the IC50 against JAK1 came to 0.01 µM; on JAK2, 0.034 µM; on JAK3, 0.41 µM; against Tyk2 it was 0.31 µM.

With `Fc1ccc(CN2CCC(c3nnn4cnc5[nH]ccc5c34)CC2)c(F)c1` [compound 164, 1-[1-(2,4-difluorobenzyl)piperidin-4-yl]-7H-pyrrolo[3,2-e][1,2,3]triazolo[1,5-c]pyrimidine], the IC50 is 0.0058 µM against JAK1, 0.03 µM against JAK2, 0.23 µM at JAK3 and 0.29 µM on Tyk2.

With `Fc1ccc(CN2CCC(c3nnn4cnc5[nH]ccc5c34)CC2)c(Cl)c1` [compound 165, 1-[1-(2-chloro-4-fluorobenzyl)piperidin-4-yl]-7H-pyrrolo[3,2-e][1,2,3]triazolo[1,5-c]pyrimidine], the IC50 turned out to be 0.0044 µM against JAK1, 0.02 µM against JAK2, 0.1 µM against JAK3 and 0.34 µM on Tyk2.

On to `Fc1ccc(CN2CCC(c3nnn4cnc5[nH]ccc5c34)CC2)cc1F` [compound 166, 1-[1-(3,4-difluorobenzyl)piperidin-4-yl]-7H-pyrrolo[3,2-e][1,2,3]triazolo[1,5-c]pyrimidine], for which the half-inhibitory concentration (IC50) against JAK1 came to 0.0053 µM; against JAK2 it was 0.023 µM; at JAK3, 0.17 µM; against Tyk2, 0.49 µM.

Take `Fc1cc(CN2CCC(c3nnn4cnc5[nH]ccc5c34)CC2)ccc1C(F)(F)F` [compound 167, 1-{1-[3-fluoro-4-(trifluoromethyl)benzyl]piperidin-4-yl}-7H-pyrrolo[3,2-e][1,2,3]triazolo[1,5-c]pyrimidine]: the IC50 is 0.0031 µM at JAK1, 0.03 µM against JAK2, 0.17 µM at JAK3 and 0.98 µM at Tyk2.

In the case of `OCCOc1ccc(CN2CCC(c3nnn4cnc5[nH]ccc5c34)CC2)cc1` [compound 168, 2-(4-{[4-(7H-pyrrolo[3,2-e][1,2,3]triazolo[1,5-c]pyrimidin-1-yl)piperidin-1-yl]methyl}phenoxy)ethanol], the IC50 against JAK1 is 0.084 µM; against JAK2 it was 0.71 µM; at JAK3, over 1 µM; against Tyk2, over 1 µM.

Regarding `FC(F)C(F)(F)Oc1ccc(CN2CCC(c3nnn4cnc5[nH]ccc5c34)CC2)cc1` [compound 169, 1-{1-[4-(1,1,2,2-tetrafluoroethoxy)benzyl]piperidin-4-yl}-7H-pyrrolo[3,2-e][1,2,3]triazolo[1,5-c]pyrimidine], the half-maximal inhibitory concentration (IC50) was 0.005 µM at JAK1, 0.052 µM on JAK2, 0.58 µM on JAK3 and over 1 µM against Tyk2.

With `CC(C)(C)OC(=O)NCCN1CCC(c2nnn3cnc4[nH]ccc4c23)CC1` [compound 171, tert-butyl {2-[4-(7H-pyrrolo[3,2-e][1,2,3]triazolo[1,5-c]pyrimidin-1-yl)piperidin-1-yl]ethyl}carbamate], the half-inhibitory concentration (IC50) at JAK1 is 0.1 µM; at JAK2 it was 0.94 µM; against JAK3, over 1 µM; on Tyk2, over 1 µM.

In the case of `O=S(=O)(c1ccc(NC[C@H]2CC[C@H](c3nnn4cnc5[nH]ccc5c34)CC2)cc1)C(F)(F)F` [compound 173, N-{[trans-4-(7H-pyrrolo[3,2-e][1,2,3]triazolo[1,5-c]pyrimidin-1-yl)cyclohexyl]methyl}-4-[(trifluoromethyl)sulfonyl]aniline], the IC50 at JAK1 is 0.034 µM; at JAK2 it was 0.26 µM; against JAK3, over 1 µM; on Tyk2, 0.46 µM.

`c1ccc(CCNC[C@H]2CC[C@H](c3nnn4cnc5[nH]ccc5c34)CC2)cc1` [compound 174, N-{[trans-4-(7H-pyrrolo[3,2-e][1,2,3]triazolo[1,5-c]pyrimidin-1-yl)cyclohexyl]methyl}-2-phenylethanamine]: the IC50 was determined as 0.0057 µM against JAK1, 0.072 µM at JAK2, 0.61 µM on JAK3 and 0.099 µM against Tyk2.

In the case of `FC(F)(F)c1nc2cc(NC[C@H]3CC[C@H](c4nnn5cnc6[nH]ccc6c45)CC3)ccc2[nH]1` [compound 175, N-{[trans-4-(7H-pyrrolo[3,2-e][1,2,3]triazolo[1,5-c]pyrimidin-1-yl)cyclohexyl]methyl}-2-(trifluoromethyl)-1H-benzo[d]imidazol-5-amine], the concentration for half-maximal inhibition (IC50) on JAK1 was 0.0056 µM; against JAK2, 0.0074 µM; at JAK3 it was 0.34 µM; against Tyk2 it was 0.045 µM.

`Clc1ccc(NC[C@H]2CC[C@H](c3nnn4cnc5[nH]ccc5c34)CC2)cc1` [compound 176, N-{[trans-4-(7H-pyrrolo[3,2-e][1,2,3]triazolo[1,5-c]pyrimidin-1-yl)cyclohexyl]methyl}-4-chloroaniline]: the half-maximal inhibitory concentration (IC50) was 0.034 µM against JAK1, 0.19 µM on JAK2, over 1 µM against JAK3 and over 1 µM against Tyk2.

For the compound `Clc1ccc(CNC[C@H]2CC[C@H](c3nnn4cnc5[nH]ccc5c34)CC2)cc1` [compound 177, 1-[trans-4-(7H-pyrrolo[3,2-e][1,2,3]triazolo[1,5-c]pyrimidin-1-yl)cyclohexyl]-N-(4-chlorobenzyl)methanamine], the half-maximal inhibitory concentration (IC50) against JAK1 came out at 0.0029 µM; on JAK2, 0.031 µM; against JAK3 it was 0.2 µM; against Tyk2, 0.0028 µM.

In the case of `Clc1ccc(CCNC[C@H]2CC[C@H](c3nnn4cnc5[nH]ccc5c34)CC2)cc1` [compound 178, N-{[trans-4-(7H-pyrrolo[3,2-e][1,2,3]triazolo[1,5-c]pyrimidin-1-yl)cyclohexyl]methyl}-2-(4-chlorophenyl)ethanamine], the IC50 against JAK1 is 0.0026 µM; at JAK2, 0.024 µM; at JAK3 it was 0.17 µM; against Tyk2 it was 0.053 µM.

Consider `Fc1ccc2c(c1)CCN2C[C@H]1CC[C@H](c2nnn3cnc4[nH]ccc4c23)CC1` [compound 179, 1-[trans-4-((5-fluoroindolin-1-yl)methyl)cyclohexyl]-7H-pyrrolo[3,2-e][1,2,3]triazolo[1,5-c]pyrimidine], for which the IC50 is 0.028 µM on JAK1, 0.094 µM against JAK2, over 1 µM against JAK3 and over 1 µM on Tyk2.

For the compound `N#CCCN(CCC#N)C[C@H]1CC[C@H](c2nnn3cnc4[nH]ccc4c23)CC1` [compound 180, 3,3′-({[trans-4-(7H-pyrrolo[3,2-e][1,2,3]triazolo[1,5-c]pyrimidin-1-yl)cyclohexyl]methyl}azanediyl)dipropanenitrile], the IC50 stood at 0.0013 µM on JAK1, 0.0019 µM at JAK2, 0.03 µM against JAK3 and 0.022 µM on Tyk2.

For `CN(C)[C@H]1CCN(C[C@H]2CC[C@H](c3nnn4cnc5[nH]ccc5c34)CC2)C1` [compound 181, (S)-1-{[trans-4-(7H-pyrrolo[3,2-e][1,2,3]triazolo[1,5-c]pyrimidin-1-yl)cyclohexyl]methyl}-N,N-dimethylpyrrolidin-3-amine], the 50% inhibitory concentration (IC50) was 0.024 µM against JAK1, 0.13 µM at JAK2, over 1 µM against JAK3 and 0.49 µM against Tyk2.

With `Cc1ccc(CNC[C@H]2CC[C@H](c3nnn4cnc5[nH]ccc5c34)CC2)o1` [compound 182, 1-[trans-4-(7H-pyrrolo[3,2-e][1,2,3]triazolo[1,5-c]pyrimidin-1-yl)cyclohexyl]-N-[(5-methylfuran-2-yl)methyl]methanamine], the IC50 worked out at 0.0054 µM on JAK1, 0.039 µM against JAK2, 0.28 µM against JAK3 and 0.016 µM against Tyk2.

On to `Cc1cnc(CNC[C@H]2CC[C@H](c3nnn4cnc5[nH]ccc5c34)CC2)cn1` [compound 183, 1-[trans-4-(7H-pyrrolo[3,2-e][1,2,3]triazolo[1,5-c]pyrimidin-1-yl)cyclohexyl]-N-[(5-methylpyrazin-2-yl)methyl]methanamine], for which the IC50 came to 0.0061 µM against JAK1, 0.055 µM at JAK2, 0.8 µM on JAK3 and 0.041 µM against Tyk2.

Turning to `C[C@H](O)CNC[C@H]1CC[C@H](c2nnn3cnc4[nH]ccc4c23)CC1` [compound 184, (S)-1-({[trans-4-(7H-pyrrolo[3,2-e][1,2,3]triazolo[1,5-c]pyrimidin-1-yl)cyclohexyl]methyl}amino)propan-2-ol], the IC50 was found to be 0.0035 µM at JAK1, 0.042 µM against JAK2, 0.58 µM against JAK3 and 0.087 µM against Tyk2.

Consider `C[C@@H](O)CNC[C@H]1CC[C@H](c2nnn3cnc4[nH]ccc4c23)CC1` [compound 185, (R)-1-({[trans-4-(7H-pyrrolo[3,2-e][1,2,3]triazolo[1,5-c]pyrimidin-1-yl)cyclohexyl]methyl}amino)propan-2-ol], for which the IC50 turned out to be 0.0081 µM at JAK1, 0.051 µM on JAK2, 0.32 µM on JAK3 and 0.13 µM at Tyk2.

In the case of `N#C[C@H]1CCN(C[C@H]2CC[C@H](c3nnn4cnc5[nH]ccc5c34)CC2)C1` [compound 187, (S)-1-{[trans-4-(7H-pyrrolo[3,2-e][1,2,3]triazolo[1,5-c]pyrimidin-1-yl)cyclohexyl]methyl}pyrrolidine-3-carbonitrile], the IC50 against JAK1 was 0.0076 µM; against JAK2 it was 0.038 µM; against JAK3, 0.37 µM; against Tyk2, 0.36 µM.

These data come from patent US9216999B2, “Substituted pyrrolo[2,3-h][1,6]naphthyridines and compositions thereof as JAK inhibitors” (priority 2011, dated 2015).
